From PubChem BioAssay (NCI)
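Following 48 hours of exposure in 96-well plates, responses at five concentrations were used to interpolate endpoints linearly. Here, GI50 denotes the concentration required for 50% inhibition of growth. At the TGI there is no net growth.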

Columns and labels:
Assay in all cases: NCI anticancer screen, dose series, 48 h
SK-MEL-28 melanoma = system: SK-MEL-28 melanoma
SW-620 colon = system: SW-620 colon
UACC-62 melanoma = system: UACC-62 melanoma
SK-MEL-5 melanoma = system: SK-MEL-5 melanoma
A549 NSCLC = system: A549 NSCLC
OVCAR-5 ovarian = system: OVCAR-5 ovarian
M14 melanoma = system: M14 melanoma
SN12C renal = system: SN12C renal
K-562 leukemia = system: K-562 leukemia
PC-3 prostate = system: PC-3 prostate

SMILES	TGI (SK-MEL-28 melanoma)	TGI (SW-620 colon)	TGI (UACC-62 melanoma)	TGI (SK-MEL-5 melanoma)	TGI (A549 NSCLC)	TGI (OVCAR-5 ovarian)	TGI (M14 melanoma)	TGI (SN12C renal)	TGI (K-562 leukemia)	GI50 (SK-MEL-28 melanoma)	GI50 (SW-620 colon)	GI50 (UACC-62 melanoma)	GI50 (SK-MEL-5 melanoma)	GI50 (PC-3 prostate)	TGI (PC-3 prostate)	GI50 (A549 NSCLC)	GI50 (OVCAR-5 ovarian)	GI50 (M14 melanoma)	GI50 (SN12C renal)
O=C1/C(=C/c2ccc(Cl)cc2)CCC1CCN1CCOCC1 (stereo not given)	> 100 µM	> 100 µM	> 100 µM	> 100 µM	> 100 µM	> 100 µM	> 100 µM	> 100 µM	> 100 µM										
CC(=O)Oc1c2c(c(O)c3ccccc13)C(n1cnc3c(ncn3C3OC(CO)C4OC(C)(C)OC43)c1=N)CCC2 (stereo not given)	31.8 µM	29.6 µM	29 µM	24.5 µM	35.4 µM	35.9 µM		37.9 µM	30 µM										
CCOc1ccc(NC(=O)C(=O)CC(=O)c2c(C)n([O-])c3ccccc3[n+]2=O)cc1	> 100 µM	> 100 µM	> 100 µM	> 100 µM	> 100 µM	> 100 µM	> 100 µM	> 100 µM	> 100 µM										
O=c1ccn([C@H]2CSC[C@@H](CO)C2)c(=O)[nH]1	> 100 µM	> 100 µM	> 100 µM	> 100 µM	> 100 µM	> 100 µM	> 100 µM	> 100 µM	> 100 µM										
OCC1OC(c2nc(C3=NCCCN3)cs2)C(O)C1O (stereo not given)	> 100 µM	> 100 µM	> 100 µM		> 100 µM	> 100 µM	> 100 µM	> 100 µM	> 100 µM										
Cc1[nH]c2ccccc2c1C(=O)/C=C/c1ccccc1O	> 100 µM	> 100 µM	> 100 µM	> 100 µM	> 100 µM	> 100 µM	> 100 µM	> 100 µM	> 100 µM										
Cn1cc(-c2csc(-c3c[nH]c4ccc(F)cc34)n2)c2cnccc21	3.29 µM	4.09 µM	3.39 µM	3.05 µM	3.42 µM	3.36 µM	3.27 µM	3.22 µM		1.86 µM	2.12 µM	1.83 µM	1.65 µM	1.69 µM	3.61 µM	1.83 µM	1.91 µM	1.74 µM	1.72 µM
CCn1c2ccccc2c2cc(NC(=O)Nc3ccc([N+](=O)[O-])cc3C)ccc21	26.2 µM	48.1 µM	> 100 µM	> 100 µM	15.6 µM	> 100 µM	64.1 µM	> 100 µM		5.33 µM	3.38 µM	5.76 µM	14.3 µM	2.73 µM	10.8 µM	3.01 µM	22.5 µM	6.21 µM	9.3 µM
COC1(OC)C(N(C)C)=C(Cl)C(=O)/C1=C/C=O	> 100 µM	> 100 µM	> 100 µM	> 100 µM	> 100 µM	> 100 µM	> 100 µM	> 100 µM	> 100 µM										
O=C(Nc1nc(=S)c2c(ncn2CCOC(=O)c2ccccc2)[nH]1)c1ccccc1	> 100 µM	> 100 µM	> 100 µM	> 100 µM	> 100 µM	> 100 µM	> 100 µM	> 100 µM	> 100 µM										
COc1ccc(CC2NCCc3c2[nH]c2ccccc32)cc1 (stereo not given)	> 100 µM	> 100 µM	> 100 µM	> 100 µM	> 100 µM	> 100 µM	> 100 µM	> 100 µM	> 100 µM										
CC1c2c(Cl)nc3ccccc3c2Oc2c1c(Cl)nc1ccccc21	> 100 µM	> 100 µM		> 100 µM	> 100 µM	> 100 µM			> 100 µM										
N#CC(C(=O)C(=O)C(C#N)c1ccc(Br)cc1)c1ccc(Br)cc1 (stereo not given)	28.9 µM	31.3 µM	7.03 µM	27.5 µM	46.5 µM	32.1 µM	31.6 µM	28 µM	> 100 µM										
CCC(C)COC(=O)c1ccc(N=Cc2ccc(C=Nc3ccc(C(=O)OCC(C)CC)cc3)cc2)cc1 (stereo not given)	> 100 µM	> 100 µM	> 100 µM	> 100 µM	> 100 µM	> 100 µM	> 100 µM	> 100 µM	> 100 µM										
CC(=O)c1sc(Nc2nnc(-c3ccc(-c4nnc(Nc5nc(C)c(C(C)=O)s5)o4)cc3)o2)nc1C	> 100 µM	> 100 µM	> 100 µM		> 10 µM	> 10 µM	> 100 µM	> 100 µM	> 100 µM										
CC1CN(C(=O)CN2CCC(CCCCN(C)C)CC2)c2ccccc2NC1=O (stereo not given)	> 100 µM	> 100 µM	> 100 µM	> 100 µM	> 100 µM	> 100 µM	> 100 µM	> 100 µM	> 100 µM										
CN=C1CC2c3cc(OC)c(OC)cc3CCN2C2=C1C(=O)CC(C)(C)C2 (stereo not given)	> 100 µM	> 100 µM		> 100 µM	> 100 µM	> 100 µM		> 100 µM											
O=C(/C=C/c1cccc2ccccc12)c1ccccc1Cl	34 µM	17.6 µM	27.3 µM	30.8 µM	55.7 µM		29.3 µM	> 100 µM	> 100 µM										
Nc1c(C(=O)Nc2ccncc2)sc2nc3c(cc12)CCCCCCCC3	1.65 µM	1.88 µM	1.67 µM	1.52 µM	2 µM	1.64 µM	1.75 µM	1.74 µM		0.916 µM	0.957 µM	0.885 µM	0.831 µM	0.866 µM	1.72 µM	1.01 µM	0.897 µM	0.93 µM	0.905 µM
CCCc1nc(NC#N)nc(C(=O)Nc2ccccc2)c1CC	> 100 µM	> 100 µM	> 100 µM	> 100 µM	> 100 µM	> 100 µM	> 100 µM	> 100 µM	> 100 µM										
CN(C)CC1CCCC/C1=N/OC(=O)c1ccc(Cl)cc1 (stereo not given)	> 100 µM	> 100 µM	> 100 µM		> 100 µM	> 100 µM	> 100 µM	> 100 µM	> 100 µM										
